Experimental data published in patent US12595253B2, “Benzamides of pyrazolylamino-pyrimidinyl derivatives, and compositions and methods thereof” (LYNK PHARMACEUTICALS CO. LTD., priority 2019, dated 2026).

Assays:
Format in all cases: biochemical
JAK1 = target: T1, JAK1 (Homo sapiens, UniProt P23458); assay: JAK1 microfluidic kinase assay (Caliper EZ Reader II, FAM labeled peptide substrate); conditions: IC50 JAK1 (5 nM) (1 m MATP), JAK1 5 nM, 1 mM ATP
T1 construct: purchased Carna Biosciences
Experimental: (§1) Compounds were tested against JAK1, JAK2, JAK2V617F and TYK2. Assay Formats: JAK activity was determined in the reaction buffer 50 mM HEPES, 0.01% Brij35, 10 mM MgCl2, 2 mM DTT by a microfluidic assay. The phosphorylation of a FAM labeled peptide substrate was monitored in the Caliper EZ Reader II (Perkin Elmer). The assay condition for each batch of enzyme (Carna Biosciences) was optimized to obtain 10% conversion rate of peptide substrate. The test compounds were dissolved in DMSO to a stock concentration of 10 mM. 3-fold serially diluted compounds with top concentration of 5 μM were pre-incubated with JAK1, JAK2, JAK2V617F or TYK2 at indicated concentrations for 10 min at ambient temperature. The final DMSO concentration of assay mixture was 1%. […] The reaction was stopped by adding 50 mM EDTA. […] The percent inhibition was calculated by the following formula. % Inhibition=(Conversionmax−Conversionsample)/(Conversionmax−Conversionmin)*100 • Conversionmax means the conversion rate in the positive well without addition of compound • Conversionmin means the conversion rate in the well without addition of enzyme • Conversionsample means the conversion rate of test compounds The dose-response (percent inhibition) curve was plotted and IC50 values were determined by GraphPad software.

JAK2V617F = target: T2, JAK2V617F (Homo sapiens, UniProt O60674, V617F); assay: JAK2V617F microfluidic kinase assay (Caliper EZ Reader II, FAM labeled peptide substrate); conditions: JAK2V617F 2.5 nM, 1 mM ATP
T2 construct: purchased Carna Biosciences
Experimental: as §1

JAK2 = target: T3, JAK2 (Homo sapiens, UniProt O60674); assay: JAK2 microfluidic kinase assay (Caliper EZ Reader II, FAM labeled peptide substrate)
T3 construct: purchased Carna Biosciences
Experimental: as §1

[1] = IC50 JAK2 ([…]) (1 mM ATP), 1 mM ATP
[2] = IC50 JAK2 ([…]) (Km ATP), Km ATP

T3 sequence (O60674 whole entry): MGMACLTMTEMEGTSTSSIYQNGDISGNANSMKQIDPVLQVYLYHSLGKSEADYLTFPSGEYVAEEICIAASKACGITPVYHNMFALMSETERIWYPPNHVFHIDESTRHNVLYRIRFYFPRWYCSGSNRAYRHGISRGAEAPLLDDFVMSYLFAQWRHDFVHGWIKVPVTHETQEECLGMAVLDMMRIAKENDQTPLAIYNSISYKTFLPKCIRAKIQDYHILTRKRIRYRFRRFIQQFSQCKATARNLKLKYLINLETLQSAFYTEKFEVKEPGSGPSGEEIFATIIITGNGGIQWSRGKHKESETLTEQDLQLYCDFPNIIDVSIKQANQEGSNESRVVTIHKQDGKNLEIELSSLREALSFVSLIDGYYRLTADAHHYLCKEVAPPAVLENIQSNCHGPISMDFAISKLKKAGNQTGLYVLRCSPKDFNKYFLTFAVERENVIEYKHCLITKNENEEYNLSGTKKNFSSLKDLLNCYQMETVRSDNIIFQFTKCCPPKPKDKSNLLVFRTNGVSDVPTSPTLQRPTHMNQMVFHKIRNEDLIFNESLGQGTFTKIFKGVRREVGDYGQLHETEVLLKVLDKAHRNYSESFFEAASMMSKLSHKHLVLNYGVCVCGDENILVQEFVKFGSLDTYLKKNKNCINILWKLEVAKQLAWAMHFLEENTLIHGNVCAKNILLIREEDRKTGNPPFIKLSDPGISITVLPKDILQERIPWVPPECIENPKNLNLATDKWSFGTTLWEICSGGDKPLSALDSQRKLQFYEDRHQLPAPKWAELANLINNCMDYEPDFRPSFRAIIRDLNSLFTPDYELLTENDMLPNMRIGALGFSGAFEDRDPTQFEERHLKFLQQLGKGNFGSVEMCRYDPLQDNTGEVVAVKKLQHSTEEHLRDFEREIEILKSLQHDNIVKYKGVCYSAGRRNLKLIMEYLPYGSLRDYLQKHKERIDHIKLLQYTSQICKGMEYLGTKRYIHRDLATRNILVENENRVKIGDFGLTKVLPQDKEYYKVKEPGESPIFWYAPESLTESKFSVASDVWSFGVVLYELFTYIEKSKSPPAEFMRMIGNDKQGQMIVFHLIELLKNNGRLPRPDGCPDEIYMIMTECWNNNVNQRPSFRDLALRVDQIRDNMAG
T2 sequence (O60674 whole entry V617F): as the sequence (O60674 whole entry) above, with V617F counted along it
T1 sequence (P23458 whole entry): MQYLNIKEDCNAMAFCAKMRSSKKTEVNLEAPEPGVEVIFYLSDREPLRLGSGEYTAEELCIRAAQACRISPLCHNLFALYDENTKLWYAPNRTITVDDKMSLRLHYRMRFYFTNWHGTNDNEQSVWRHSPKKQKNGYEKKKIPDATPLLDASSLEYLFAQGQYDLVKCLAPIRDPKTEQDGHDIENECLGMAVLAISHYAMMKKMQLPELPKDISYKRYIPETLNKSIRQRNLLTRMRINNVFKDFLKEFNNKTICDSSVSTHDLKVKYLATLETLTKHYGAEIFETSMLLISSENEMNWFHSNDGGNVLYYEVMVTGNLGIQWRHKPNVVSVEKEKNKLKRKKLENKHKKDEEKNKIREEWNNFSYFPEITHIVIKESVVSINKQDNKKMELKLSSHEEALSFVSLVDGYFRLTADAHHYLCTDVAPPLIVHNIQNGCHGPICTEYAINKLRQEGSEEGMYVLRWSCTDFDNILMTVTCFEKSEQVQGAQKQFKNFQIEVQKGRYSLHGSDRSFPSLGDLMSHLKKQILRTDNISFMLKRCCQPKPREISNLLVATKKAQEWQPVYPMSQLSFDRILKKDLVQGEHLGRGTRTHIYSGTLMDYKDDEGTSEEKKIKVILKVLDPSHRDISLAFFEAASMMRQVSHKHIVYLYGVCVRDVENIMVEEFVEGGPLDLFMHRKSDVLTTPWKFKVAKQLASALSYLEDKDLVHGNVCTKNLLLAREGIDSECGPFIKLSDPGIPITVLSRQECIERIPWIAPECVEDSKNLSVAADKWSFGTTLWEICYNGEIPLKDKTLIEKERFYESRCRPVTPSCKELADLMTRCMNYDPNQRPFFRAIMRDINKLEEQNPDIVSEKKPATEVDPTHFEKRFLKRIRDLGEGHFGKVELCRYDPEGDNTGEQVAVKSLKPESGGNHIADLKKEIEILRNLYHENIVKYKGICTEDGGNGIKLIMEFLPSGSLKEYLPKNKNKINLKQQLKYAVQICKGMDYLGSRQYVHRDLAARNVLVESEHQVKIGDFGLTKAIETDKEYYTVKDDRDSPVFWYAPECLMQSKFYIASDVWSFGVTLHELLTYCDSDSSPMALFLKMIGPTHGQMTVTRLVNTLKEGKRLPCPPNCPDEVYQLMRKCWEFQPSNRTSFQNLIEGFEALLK

Structure (SMILES)	IC50 (JAK1)	IC50 (JAK2V617F)	IC50 (JAK2; [1])	IC50 (JAK2; [2])
CC(=O)N1CC(n2cc(Nc3ncc(C)c(-c4ccc(C(=O)N[C@@H](C)C#N)cc4)n3)cn2)C1 [Example 157]	0.0222 µM	0.0331 µM		
Cc1cnc(Nc2cnn(C3CC(F)(F)C3)c2)nc1-c1ccc(C(=O)N[C@@H](C)C#N)cc1 [Example 155, (S)—N-(1-cyanoethyl)-4-(2-((1-(3,3-difluorocyclobutyl)-1H-pyrazol-4-yl)amino)-5-methylpyrimidin-4-yl)benzamide]	0.48 µM	1.89 µM		
Cc1cnc(Nc2cnn(C3CC(F)(F)C3)c2)nc1-c1ccc(C(=O)NCC#N)cc1 [Example 104, N-(cyanomethyl)-4-(2-((1-(3,3-difluorocyclobutyl)-1H-pyrazol-4-yl)amino)-5-methylpyrimidin-4-yl)benzamide]	0.28 µM		1.15 µM	
C[C@@H](C#N)NC(=O)c1ccc(-c2nc(Nc3cnn(C4CC4)c3)ncc2Cl)cn1 [Example 121, (S)-5-(5-chloro-2-((1-cyclopropyl-1H-pyrazol-4-yl)amino)pyrimidin-4-yl)-N-(1-cyanoethyl)picolinamide]	0.0674 µM	0.245 µM		
Cn1cc(Nc2ncc(Cl)c(-c3ccc(C(=O)NCC4(C#N)CC4)cc3)n2)cn1 [Example 124]	0.022 µM		0.0471 µM	
Cc1cnc(Nc2cnn(CC(C)(C)C#N)c2)nc1-c1ccc(C(=O)NCC(F)(F)F)cc1 [Example 81, 4-(2-((1-(2-Cyano-2-methylpropyl)-1H-pyrazol-4-yl)amino)-5-methylpyrimidin-4-yl)-N-(2,2,2-trifluoroethyl)benzamide]		0.114 µM		
Cc1cnc(Nc2cnn(C3CCOC(C)C3)c2)nc1-c1ccc(C(=O)NCC#N)cc1 (stereo not shown) [Example 72, N-(cyanomethyl)-4-(5-methyl-2-((1-(2-methyltetrahydro-2H-pyran-4-yl)-1H-pyrazol-4-yl)amino)pyrimidin-4-yl)benzamide]	0.028 µM	0.0336 µM		
Cc1cnc(Nc2cnn(C)c2)nc1-c1ccc(C(=O)NCCC#N)cc1 [Example 2, N-(2-Cyanoethyl)-4-(5-methyl-2-((1-methyl-1H-pyrazol-4-yl)amino)pyrimidin-4-yl)benzamide]	0.0336 µM		0.0572 µM	0.00177 µM
Cc1cnc(Nc2cnn(C3CN(C(=O)C4CC4)C3)c2)nc1-c1ccc(C(=O)N[C@@H](C)C#N)cc1 [Example 71, (S)—N-(1-cyanoethyl)-4-(2-((1-(1-(cyclopropanecarbonyl)azetidin-3-yl)-1H-pyrazol-4-yl)amino)-5-methylpyrimidin-4-yl)benzamide]	0.026 µM	0.0428 µM		
C[C@@H](C#N)NC(=O)c1ccc(-c2nc(Nc3cnn(C4CCN(C(=O)C(C)(C)C)CC4)c3)ncc2F)cc1 [Example 57, (S)—N-(1-cyanoethyl)-4-(5-fluoro-2-((1-(1-pivaloylpiperidin-4-yl)-1H-pyrazol-4-yl)amino)pyrimidin-4-yl)benzamide]	0.132 µM		0.0391 µM	
Cc1cnc(Nc2cnn(C)c2)nc1-c1ccc(C(=O)NCC2(O)CC2)cc1 [Example 32, N-((1-Hydroxycyclopropyl)methyl)-4-(5-methyl-2-((1-methyl-1H-pyrazol-4-yl)amino)pyrimidin-4-yl)benzamide]	0.053 µM		0.165 µM	0.00515 µM
N#CCNC(=O)c1ccc(-c2nc(Nc3cnn(C4CCN(C(=O)C5CC5)CC4)c3)ncc2C(F)(F)F)cc1 [Example 161, N-(cyanomethyl)-4-(2-((1-(1-(cyclopropanecarbonyl)piperidin-4-yl)-1H-pyrazol-4-yl)amino)-5-(trifluoromethyl)pyrimidin-4-yl)benzamide]	> 5 µM		> 5 µM	
Cc1cnc(Nc2cnn(CC(F)F)c2)nc1-c1ccc(C(=O)NCC#N)cc1 [Example 27, N-(Cyanomethyl)-4-(2-((1-(2,2-difluoroethyl)-1H-pyrazol-4-yl)amino)-5-methylpyrimidin-4-yl)benzamide]		0.104 µM	0.0502 µM	0.00197 µM
N#CCNC(=O)c1ccc(-c2ccnc(Nc3cnn(C4CC4)c3)n2)cc1F [Example 139, N-(Cyanomethyl)-4-(2-((1-cyclopropyl-1H-pyrazol-4-yl)amino)pyrimidin-4-yl)-2-fluorobenzamide]	0.291 µM		0.219 µM	0.0053 µM
Cc1cnc(Nc2cnn(C3CCN(C(=O)C4CC4)CC3)c2)nc1-c1ccc(C(=O)N[C@@H](C)C#N)nc1 [Example 151, (S)—N-(1-cyanoethyl)-5-(2-((1-(1-(cyclopropanecarbonyl)piperidin-4-yl)-1H-pyrazol-4-yl)amino)-5-methylpyrimidin-4-yl)picolinamide]	0.0721 µM		0.0324 µM	
Cc1cnc(Nc2cnn(C3CC(C)(C)OC(C)(C)C3)c2)nc1-c1ccc(C(=O)N[C@@H](C)C#N)c(F)c1 [Example 224, (S)—N-(1-Cyanoethyl)-2-fluoro-4-(5-methyl-2-((1-(2,2,6,6-tetramethyltetrahydro-2H-pyran-4-yl)-1H-pyrazol-4-yl)amino)pyrimidin-4-yl)benzamide]	0.0984 µM		0.00049 µM	
Cc1cnc(Nc2cnn(C3CCN(C(=O)C4(O)CC4)CC3)c2)nc1-c1ccc(C(=O)N[C@@H](C)C#N)cc1 [Example 79, (S)—N-(1-Cyanoethyl)-4-(2-((1-(1-(1-hydroxycyclopropanecarbonyl)piperidin-4=yl)-1H-pyrazol-4-yl)amino)-5-methylpyrimidin-4-yl)benzamide]		0.00044 µM		

The next lines start with the values.

IC50 (JAK1)	IC50 (JAK2V617F)	IC50 (JAK2; [1])	IC50 (JAK2; [2])	Structure (SMILES)
0.0111 µM	0.00217 µM			Cc1cnc(Nc2cnn(C3CCC(F)(F)CC3)c2)nc1-c1ccc(C(=O)N[C@@H](C)C#N)cc1 [Example 85, (S)—N-(1-cyanoethyl)-4-(2-((1-(4,4-difluorocyclohexyl)-1H-pyrazol-4-yl)amino)-5-methylpyrimidin-4-yl)benzamide]
0.0189 µM	0.0351 µM			Cc1cnc(Nc2cnn(C3CCOCC3)c2)nc1-c1ccc(C(=O)NCC(C)(C)C#N)cc1 [Example 133, N-(2-cyano-2-methylpropyl)-4-(5-methyl-2-((1-(tetrahydro-2H-pyran-4-yl)-1H-pyrazol-4-yl)amino)pyrimidin-4-yl)benzamide]
0.017 µM	0.027 µM			Cc1cnc(Nc2cnn(C3CCCOC3)c2)nc1-c1ccc(C(=O)NCC#N)cc1 (stereo not shown) [Example 67, N-(cyanomethyl)-4-(5-methyl-2-((1-(tetrahydro-2H-pyran-3-yl)-1H-pyrazol-4-yl)amino)pyrimidin-4-yl)benzamide]
0.00565 µM	0.0335 µM			Cc1cnc(Nc2cnn(C3CC3)c2)nc1-c1ccc(C(=O)N[C@H](C#N)C2CC2)cc1 [Example 194, (S)—N-(cyano(cyclopropyl)methyl)-4-(2-((1-cyclopropyl-1H-pyrazol-4-yl)amino)-5-methylpyrimidin-4-yl)benzamide]
0.00553 µM		0.0425 µM		CC[C@@H](C#N)NC(=O)c1ccc(-c2nc(Nc3cnn(C)c3)ncc2C)cc1 [Example 219, (S)—N-(1-cyanopropyl)-4-(5-methyl-2-((1-methyl-1H-pyrazol-4-yl)amino)pyrimidin-4-yl)benzamide]
0.00906 µM		0.00052 µM		CC[C@@H](C#N)NC(=O)c1ccc(-c2nc(Nc3cnn(C4CCC(O)CC4)c3)ncc2C)cc1 (stereo partly drawn) [Example 205, (S)—N-(1-cyanopropyl)-4-(2-((1-(4-hydroxycyclohexyl)-1H-pyrazol-4-yl)amino)-5-methylpyrimidin-4-yl)benzamide]
0.0162 µM		0.07 µM		CC[C@@H](C#N)NC(=O)c1ccc(-c2nc(Nc3cnn(C)c3)ncc2Cl)cc1 [Example 220, (S)-4-(5-chloro-2-((1-methyl-1H-pyrazol-4-yl)amino)pyrimidin-4-yl)-N-(1-cyanopropyl)benzamide]
0.0107 µM		0.00086 µM		Cc1cnc(Nc2cnn(C3CCN(C(=O)C(C)(C)O)CC3)c2)nc1-c1ccc(C(=O)NC(C)C#N)cc1 (stereo in doubt) [Example 52, (S)—N-(1-cyanoethyl)-4-(2-((1-(1-(2-hydroxy-2-methylpropanoyl)piperidin-4-yl)-1H-pyrazol-4-yl)amino)-5-methylpyrimidin-4-yl)benzamide]
0.0115 µM		< 0.00025 µM		CC1(C)CC(n2cc(Nc3ncc(Cl)c(-c4ccc(C(=O)NCC#N)cc4)n3)cn2)CC(C)(C)O1 [Example 181, 4-(5-Chloro-2-((1-(2,2,6,6-tetramethyltetrahydro-2H-pyran-4-yl)-1H-pyrazol-4-yl)amino)pyrimidin-4-yl)-N-(cyanomethyl)benzamide]
0.00577 µM		0.0137 µM		COC[C@@H](C#N)NC(=O)c1ccc(-c2nc(Nc3cnn(C4CC4)c3)ncc2C)cc1 [Example 187, (R)—N-(1-Cyano-2-methoxyethyl)-4-(2-((1-cyclopropyl-1H-pyrazol-4-yl)amino)-5-methylpyrimidin-4-yl)benzamide]
0.00461 µM		0.00112 µM		[2H]c1c([2H])c(-c2nc(Nc3cnn(C4CC4)c3)ncc2Cl)c([2H])c([2H])c1C(=O)N[C@@H](C)C#N [Example 162, (S)-4-(5-chloro-2-((1-cyclopropyl-1H-pyrazol-4-yl)amino)pyrimidin-4-yl)-N-(1-cyanoethyl)benzamide-2,3,5,6-d4]
